Among the data in patent US20230373989A1, “N-PHENYLAMINOCARBONYL PYRIDINO-, PYRIMIDINO AND BENZO-TROPANES AS MODULATORS OF GPR65” (PATHIOS THERAPEUTICS LIMITED, priority 2020, published 2023) are IC50 values, retold here.

The target in the first test is T1, human recombinant GPR65 (Homo sapiens, UniProt Q8IYL9).
T1 construct: host or cells: 1321N1 human astrocytoma cells (1321N1-hrGPR65)
T1 sequence (Q8IYL9 whole entry): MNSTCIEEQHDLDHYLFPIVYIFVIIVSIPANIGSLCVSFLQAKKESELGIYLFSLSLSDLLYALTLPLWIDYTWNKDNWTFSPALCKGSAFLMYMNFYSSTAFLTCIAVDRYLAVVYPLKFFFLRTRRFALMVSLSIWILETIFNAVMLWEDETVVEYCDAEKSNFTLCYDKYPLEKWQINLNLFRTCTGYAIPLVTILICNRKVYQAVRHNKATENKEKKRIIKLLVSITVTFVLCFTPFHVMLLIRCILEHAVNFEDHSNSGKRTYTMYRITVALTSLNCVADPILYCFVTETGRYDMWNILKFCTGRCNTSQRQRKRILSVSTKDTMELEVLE
Description: Human GPR65 cAMP HTRF antagonist assay. It counts as cell-based.
Settings: not given
A digest of the protocol: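 1321N1 astrocytoma cells stably expressing GPR65 were preincubated with compound for 30 min at room temperature in KRH pH 7.6 with 1 mM IBMX and 200 μM EDTA. They were then stimulated at assay pH 7.2 for 30 min, with controls at pH 7.9. cAMP was read by HTRF (665/620 nm), normalised to controls and fitted by 4-parameter logistic to give IC50.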
(TR-FRET usually uses a lanthanide donor and a delayed reading to cut background.)
Broadly, the IC50 is the concentration at which inhibition is half-maximal. Take `O=C(Nc1cc(C(F)(F)F)ccc1F)N1[C@H]2CC[C@@H]1c1ccnc(F)c1C2` [Compound 119, (5R,8S)-1-Fluoro-N-(2-fluoro-5-(trifluoromethyl)phenyl)-6,7,8,9-tetrahydro-5H-5,8-epiminocyclohepta[c]pyridine-10-carboxamide]: the IC50 was below 500 nM.

In the case of `O=C(Nc1ccc(C(F)(F)F)cc1F)N1[C@H]2CC[C@@H]1c1ccnc(F)c1C2` [Compound 120, (5R,8S)-1-Fluoro-N-(2-fluoro-4-(trifluoromethyl)phenyl)-6,7,8,9-tetrahydro-5H-5,8-epiminocyclohepta[c]pyridine-10-carboxamide], the IC50 is below 500 nM.

As to `COC(=O)c1ccc(NC(=O)N2[C@H]3CC[C@@H]2c2ccnc(F)c2C3)cc1Cl` [Compound 122, Methyl 2-chloro-4-((5R,8S)-1-fluoro-6,7,8,9-tetrahydro-5H-5,8-epiminocyclohepta[c]pyridine-10-carboxamido)benzoate], the IC50 is below 500 nM.

For the molecule `COC(=O)c1cc(NC(=O)N2[C@H]3CC[C@@H]2c2ccnc(F)c2C3)ccc1Cl` [Compound 123, Methyl 2-chloro-5-((5R,8S)-1-fluoro-6,7,8,9-tetrahydro-5H-5,8-epiminocyclohepta[c]pyridine-10-carboxamido)benzoate], the IC50 is below 500 nM.

`O=C(Nc1ccc(OC(F)(F)F)c(Cl)c1)N1[C@H]2CC[C@@H]1c1ccnc(F)c1C2` [Compound 124, (5R,8S)-N-(3-Chloro-4-(trifluoromethoxy)phenyl)-1-fluoro-6,7,8,9-tetrahydro-5H-5,8-epiminocyclohepta[c]pyridine-10-carboxamide]: the IC50 was below 500 nM.

For `COC(=O)c1cc(NC(=O)N2[C@H]3CC[C@@H]2c2ccnc(F)c2C3)c(F)cc1Cl` [Compound 125, Methyl 2-chloro-4-fluoro-5-((5R,8S)-1-fluoro-6,7,8,9-tetrahydro-5H-5,8-epiminocyclohepta[c]pyridine-10-carboxamido)benzoate], the half-inhibitory concentration (IC50) was below 500 nM.

For `O=C(Nc1cc(C(F)(F)F)c(Cl)cc1F)N1[C@H]2CC[C@@H]1c1ccnc(F)c1C2` [Compound 126, (5R,8S)-N-(4-Chloro-2-fluoro-5-(trifluoromethyl)phenyl)-1-fluoro-6,7,8,9-tetrahydro-5H-5,8-epiminocyclohepta[c]pyridine-10-carboxamide], the IC50 is below 500 nM.

`O=C(Nc1ccc(OC(F)F)c(Cl)c1)N1[C@H]2CC[C@@H]1c1c[nH]c(=O)cc1C2` [Compound 127, (6S,9R)-N-(3-Chloro-4-(difluoromethoxy)phenyl)-3-oxo-3,5,6,7,8,9-hexahydro-2H-6,9-epiminocyclohepta[c]pyridine-10-carboxamide]: the IC50 is below 500 nM.

Turning to `O=C(Nc1ccc(OC(F)(F)F)c(Cl)c1)N1[C@H]2CC[C@@H]1c1c[nH]c(=O)cc1C2` [Compound 128, (6S,9R)-N-(3-Chloro-4-(trifluoromethoxy)phenyl)-3-oxo-3,5,6,7,8,9-hexahydro-2H-6,9-epiminocyclohepta[c]pyridine-10-carboxamide], the IC50 is below 500 nM.

Take `O=C(Nc1cc(C(F)(F)F)c(Cl)cc1F)N1[C@H]2CC[C@@H]1c1c[nH]c(=O)cc1C2` [Compound 129, (6S,9R)-N-(4-Chloro-2-fluoro-5-(trifluoromethyl)phenyl)-3-oxo-3,5,6,7,8,9-hexahydro-2H-6,9-epiminocyclohepta[c]pyridine-10-carboxamide]: the half-inhibitory concentration (IC50) was below 500 nM.

In the case of `O=C(Nc1ccc(OC(F)F)c(Cl)c1)N1[C@H]2CC[C@@H]1c1ccnc(F)c1C2` [Compound 133, (5R,8S)—N-(3-Chloro-4-(difluoromethoxy)phenyl)-1-fluoro-6,7,8,9-tetrahydro-5H-5,8-epiminocyclohepta[c]pyridine-10-carboxamide], the IC50 was below 500 nM.

Consider `C[C@H]1c2cnccc2[C@H]2CC[C@@H]1N2C(=O)Nc1ccc(Cl)c(Cl)c1` [Compound 134, (5R,8S,9S)-N-(3,4-Dichlorophenyl)-9-methyl-6,7,8,9-tetrahydro-5H-5,8-epiminocyclohepta[c]pyridine-10-carboxamide], for which the IC50 was below 500 nM.

For `O=C(Nc1ccc(Cl)c(Cl)c1)N1[C@@H]2CC[C@H]1[C@@H](F)c1cc(F)ncc12` [Compound 140, (5S,6S,9R)-N-(3,4-Dichlorophenyl)-3,5-difluoro-6,7,8,9-tetrahydro-5H-6,9-epiminocyclohepta[c]pyridine-10-carboxamide], the IC50 is below 500 nM.

In the case of `O=C(Nc1cc(Cl)c(Br)cc1F)N1[C@H]2CC[C@@H]1c1c[nH]c(=O)cc1C2` [Compound 141, (6S,9R)-N-(4-Bromo-5-chloro-2-fluorophenyl)-3-oxo-3,5,6,7,8,9-hexahydro-2H-6.9-epiminocyclohepta[c]pyridine-10-carboxamide], the IC50 was below 500 nM.

As for `O=C(Nc1cc(Br)c(Cl)cc1F)N1[C@H]2CC[C@@H]1c1c[nH]c(=O)cc1C2` [Compound 142, (6S,9R)-N-(5-Bromo-4-chloro-2-fluorophenyl)-3-oxo-3,5,6,7,8,9-hexahydro-2H-6,9-epiminocyclohepta[c]pyridine-10-carboxamide], the IC50 is below 500 nM.

As to `O=C(Nc1ccc(Br)c(Cl)c1)N1[C@H]2CC[C@@H]1c1c[nH]c(=O)cc1C2` [Compound 143, (6S,9R)-N-(4-Bromo-3-chlorophenyl)-3-oxo-3,5,6,7,8,9-hexahydro-2H-6,9-epiminocyclohepta[c]pyridine-10-carboxamide], the IC50 was below 500 nM.

On to `O=C(Nc1cc(Br)c(C(F)(F)F)cc1F)N1[C@H]2CC[C@@H]1c1c[nH]c(=O)cc1C2` [Compound 144, (6S,9R)-N-(5-Bromo-2-fluoro-4-(trifluoromethyl)phenyl)-3-oxo-3,5,6,7,8,9-hexahydro-2H-6,9-epiminocyclohepta[c]pyridine-10-carboxamide], for which the IC50 is below 500 nM.

For `O=C(Nc1ccc(Cl)c(Br)c1)N1[C@H]2CC[C@@H]1c1c[nH]c(=O)cc1C2` [Compound 145, (6S,9R)-N-(3-Bromo-4-chlorophenyl)-3-oxo-3,5,6,7,8,9-hexahydro-2H-6.9-epiminocyclohepta[c]pyridine-10-carboxamide], the IC50 was below 500 nM.

For the molecule `O=C(Nc1cc(Cl)c(C(F)(F)F)cc1F)N1[C@H]2CC[C@@H]1c1c[nH]c(=O)c(F)c1C2` [Compound 146, (6S,9R)-N-(5-Chloro-2-fluoro-4-(trifluoromethyl)phenyl)-4-fluoro-3-oxo-3,5,6,7,8,9-hexahydro-2H-6,9-epiminocyclohepta[c]pyridine-10-carboxamide], the IC50 is below 500 nM.

On to `O=C(Nc1cc(Cl)c(C(F)(F)F)cc1F)N1[C@@H]2CC[C@H]1c1c[nH]c(=O)c(F)c1C2` [Compound 147, (6R,9S)-N-(5-Chloro-2-fluoro-4-(trifluoromethyl)phenyl)-4-fluoro-3-oxo-3,5,6,7,8,9-hexahydro-2H-6,9-epiminocyclohepta[c]pyridine-10-carboxamide], for which the IC50 was below 500 nM.

In the case of `O=C(Nc1cc(Cl)c(Cl)cc1O)N1[C@H]2CC[C@@H]1c1ccnc(F)c1C2` [Compound 149, (5R,8S)—N-(4,5-Dichloro-2-hydroxyphenyl)-1-fluoro-6,7,8,9-tetrahydro-5H-5,8-epiminocyclohepta[c]pyridine-10-carboxamide], the IC50 is below 500 nM.

Take `N#Cc1cc(NC(=O)N2[C@H]3CC[C@@H]2c2ccnc(F)c2C3)ccc1C(F)(F)F` [Compound 151, (5R,8S)-N-(3-cyano-4-(trifluoromethyl)phenyl)-1-fluoro-6,7,8,9-tetrahydro-5H-5,8-epiminocyclohepta[c]pyridine-10-carboxamide]: the IC50 is below 500 nM.

For `O=C(Nc1ccc(C(F)(F)F)c(Br)c1)N1[C@H]2CC[C@@H]1c1ccnc(F)c1C2` [Compound 153, (5R,8S)-N-(3-Bromo-4-(trifluoromethyl)phenyl)-1-fluoro-6,7,8,9-tetrahydro-5H-5,8-epiminocyclohepta[c]pyridine-10-carboxamide], the IC50 is below 500 nM.

As for `C=CC(=O)Nc1ccc(NC(=O)N2[C@H]3CC[C@@H]2c2ccnc(F)c2C3)cc1Cl` [Compound 179, (5R,8S)-N-(4-Acrylamido-3-chlorophenyl)-1-fluoro-6,7,8,9-tetrahydro-5H-5,8-epiminocyclohepta[c]pyridine-10-carboxamide], the IC50 was in the range of 500 to 5000 nM.

As for `O=C(Nc1cc(Br)c(C(F)(F)F)cc1F)N1[C@H]2CC[C@@H]1c1ccnc(F)c1C2` [Compound 180, (5R,8S)-N-(5-Bromo-2-fluoro-4-(trifluoromethyl)phenyl)-1-fluoro-6,7,8,9-tetrahydro-5H-5,8-epiminocyclohepta[c]pyridine-10-carboxamide], the IC50 was below 500 nM.

The same test, now with this note: 1321N1-hrGPR65 cells, assay pH 7.2, cAMP HTRF; read-out: hGPR65 IC50 (activity class).
For the molecule `COC(=O)c1ccc(NC(=O)N2[C@H]3CC[C@@H]2c2c[nH]c(=O)cc2C3)cc1Cl` [Compound 130, Methyl 2-chloro-4-((6S,9R)-3-oxo-3,5,6,7,8,9-hexahydro-2H-6,9-epiminocyclohepta[c]pyridine-10-carboxamido)benzoate], the IC50 is 500 to 5000 nM.

Regarding `COC(=O)c1cc(NC(=O)N2[C@H]3CC[C@@H]2c2c[nH]c(=O)cc2C3)ccc1Cl` [Compound 131, Methyl 2-chloro-5-((6S,9R)-3-oxo-3,5,6,7,8,9-hexahydro-2H-6,9-epiminocyclohepta[c]pyridine-10-carboxamido)benzoate], the IC50 is 500 to 5000 nM.

Take `COC(=O)c1cc(NC(=O)N2[C@H]3CC[C@@H]2c2c[nH]c(=O)cc2C3)c(F)cc1Cl` [Compound 132, Methyl 2-chloro-4-fluoro-5-((6S,9R)-3-oxo-3,5,6,7,8,9-hexahydro-2H-6,9-epiminocyclohepta[c]pyridine-10-carboxamido)benzoate]: the IC50 lay within 500 to 5000 nM.

Consider `Cn1cc2c(cc1=O)C[C@@H]1CC[C@H]2N1C(=O)Nc1ccc(Cl)c(Cl)c1` [Compound 150, (6S,9R)—N-(3,4-Dichlorophenyl)-2-methyl-3-oxo-3,5,6,7,8,9-hexahydro-2H-6,9-epiminocyclohepta[c]pyridine-10-carboxamide], for which the IC50 is 500 to 5000 nM.
